Test results: the supplement of paper PMC11451515

Test system: NOMO1
Assay: cell viability relative to DMSO control; higher = less cytotoxic
Details: 48 h
Outline: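 Three leukemia lines were tested: NOMO1 and SEM at 500 cells/well and P12-Ichikawa at 1000 cells/well. Each was adapted for at least four passages in each medium and seeded in 5 μl in 1536-well plates, and library compounds in DMSO were pin-dosed from 47 μM to 0.79 nM in 11 threefold steps. After 48 h at 37°C, CellTiter-Glo One luminescence was read. Viability is a percentage relative to DMSO wells on each plate, with cell-free wells as background.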

[1] = HPLM + 10% dialyzed FBS, 0.000781 µM
[2] = HPLM + 10% dialyzed FBS, 0.00234 µM
[3] = HPLM + 10% dialyzed FBS, 0.00702 µM
[4] = HPLM + 10% dialyzed FBS, 0.0211 µM
[5] = HPLM + 10% dialyzed FBS, 0.0632 µM
[6] = HPLM + 10% dialyzed FBS, 0.19 µM
[7] = HPLM + 10% dialyzed FBS, 0.569 µM
[8] = HPLM + 10% dialyzed FBS, 1.71 µM
[9] = HPLM + 10% dialyzed FBS, 5.12 µM
[10] = HPLM + 10% dialyzed FBS, 15.4 µM
[11] = HPLM + 10% dialyzed FBS, 46.1 µM
[12] = RPMI 5 mM glucose + 10% FBS, 0.000781 µM
[13] = RPMI 5 mM glucose + 10% FBS, 0.00234 µM
[14] = RPMI 5 mM glucose + 10% FBS, 0.00702 µM
[15] = RPMI 5 mM glucose + 10% FBS, 0.0211 µM
[16] = RPMI 5 mM glucose + 10% FBS, 0.0632 µM
[17] = RPMI 5 mM glucose + 10% FBS, 0.19 µM
[18] = RPMI 5 mM glucose + 10% FBS, 0.569 µM
[19] = RPMI 5 mM glucose + 10% FBS, 1.71 µM
[20] = RPMI 5 mM glucose + 10% FBS, 5.12 µM
[21] = RPMI 5 mM glucose + 10% FBS, 15.4 µM
[22] = RPMI 5 mM glucose + 10% FBS, 46.1 µM
[23] = RPMI 5 mM glucose + 10% dialyzed FBS, 0.000781 µM
[24] = RPMI 5 mM glucose + 10% dialyzed FBS, 0.00234 µM
[25] = RPMI 5 mM glucose + 10% dialyzed FBS, 0.00702 µM
[26] = RPMI 5 mM glucose + 10% dialyzed FBS, 0.0211 µM
[27] = RPMI 5 mM glucose + 10% dialyzed FBS, 0.0632 µM
[28] = RPMI 5 mM glucose + 10% dialyzed FBS, 0.19 µM
[29] = RPMI 5 mM glucose + 10% dialyzed FBS, 0.569 µM
[30] = RPMI 5 mM glucose + 10% dialyzed FBS, 1.71 µM
[31] = RPMI 5 mM glucose + 10% dialyzed FBS, 5.12 µM
[32] = RPMI 5 mM glucose + 10% dialyzed FBS, 15.4 µM
[33] = RPMI 5 mM glucose + 10% dialyzed FBS, 46.1 µM

SMILES: CC(C)(O)/C=C\C(=O)[C@](C)(O)[C@H]1[C@H](O)C[C@]2(C)[C@@H]3CC=C4[C@@H](C=C(O)C(=O)C4(C)C)[C@]3(C)C(=O)C[C@@]12C
- cell viability [1]: 96.2%
- cell viability [2]: 115%
- cell viability [3]: 126%
- cell viability [4]: 116%
- cell viability [5]: 111%
- cell viability [6]: 74.7%
- cell viability [7]: 18.8%
- cell viability [8]: 17.3%
- cell viability [9]: 14.5%
- cell viability [10]: 7.22%
- cell viability [11]: 11.9%
- cell viability [12]: 106%
- cell viability [13]: 102%
- cell viability [14]: 95.5%
- cell viability [15]: 122%
- cell viability [16]: 89.2%
- cell viability [17]: 63.4%
- cell viability [18]: 30.2%
- cell viability [19]: 18.8%
- cell viability [20]: 16.1%
- cell viability [21]: 9.22%
- cell viability [22]: 14.5%
- cell viability [23]: 101%
- cell viability [24]: 110%
- cell viability [25]: 108%
- cell viability [26]: 110%
- cell viability [27]: 99.8%
- cell viability [28]: 58.2%
- cell viability [29]: 22.1%
- cell viability [30]: 16%
- cell viability [31]: 18.7%
- cell viability [32]: 9.49%
- cell viability [33]: 12.2%

SMILES: CO/N=C(/C(=O)N[C@@H]1C(=O)N2C(C(=O)O)=C(CSC(=O)c3ccco3)CS[C@H]12)c1csc(N)n1
- cell viability [1]: 81.5%
- cell viability [2]: 106%
- cell viability [3]: 116%
- cell viability [4]: 102%
- cell viability [5]: 113%
- cell viability [6]: 103%
- cell viability [7]: 109%
- cell viability [8]: 85.5%
- cell viability [9]: 64.8%
- cell viability [10]: 53%
- cell viability [11]: 48.8%
- cell viability [12]: 89.4%
- cell viability [13]: 104%
- cell viability [14]: 99.4%
- cell viability [15]: 98.6%
- cell viability [16]: 103%
- cell viability [17]: 103%
- cell viability [18]: 109%
- cell viability [19]: 92.5%
- cell viability [20]: 90.9%
- cell viability [21]: 73.8%
- cell viability [22]: 77.2%
- cell viability [23]: 82.9%
- cell viability [24]: 97.4%
- cell viability [25]: 99.9%
- cell viability [26]: 111%
- cell viability [27]: 104%
- cell viability [28]: 101%
- cell viability [29]: 111%
- cell viability [30]: 103%
- cell viability [31]: 82.5%
- cell viability [32]: 81.3%
- cell viability [33]: 58.5%

SMILES: COC1=CC=C(C=C1O)C/2=C/C(=O)C3=C(O2)C=C(O[C@@H]4O[C@H](CO[C@@H]5O[C@@H](C)[C@H](O)[C@@H](O)[C@H]5O)[C@@H](O)[C@H](O)[C@H]4O)C=C3O
- cell viability [1]: 112%
- cell viability [2]: 118%
- cell viability [3]: 129%
- cell viability [4]: 126%
- cell viability [5]: 130%
- cell viability [6]: 142%
- cell viability [7]: 134%
- cell viability [8]: 117%
- cell viability [9]: 117%
- cell viability [10]: 129%
- cell viability [11]: 139%
- cell viability [12]: 112%
- cell viability [13]: 103%
- cell viability [14]: 110%
- cell viability [15]: 115%
- cell viability [16]: 130%
- cell viability [17]: 114%
- cell viability [18]: 126%
- cell viability [19]: 125%
- cell viability [20]: 126%
- cell viability [21]: 124%
- cell viability [22]: 114%

SMILES: O=c1[nH]c(=O)n(C2CCCO2)cc1F (stereo not given)
- cell viability [12]: 10.4%
- cell viability [13]: 124%
- cell viability [14]: 108%
- cell viability [15]: 116%
- cell viability [16]: 105%
- cell viability [17]: 131%
- cell viability [18]: 106%
- cell viability [19]: 110%
- cell viability [20]: 116%
- cell viability [21]: 111%
- cell viability [22]: 109%

SMILES: CN(C)CCN1C(=O)c2cccc3cc(N)cc(c23)C1=O
- cell viability [1]: 116%
- cell viability [2]: 122%
- cell viability [3]: 118%
- cell viability [4]: 125%
- cell viability [5]: 118%
- cell viability [6]: 147%
- cell viability [7]: 118%
- cell viability [8]: 123%
- cell viability [9]: 93.7%
- cell viability [10]: 72.3%
- cell viability [11]: 26.7%
- cell viability [12]: 93.3%
- cell viability [13]: 108%
- cell viability [14]: 135%
- cell viability [15]: 108%
- cell viability [16]: 121%
- cell viability [17]: 121%
- cell viability [18]: 132%
- cell viability [19]: 102%
- cell viability [20]: 105%
- cell viability [21]: 59.3%
- cell viability [22]: 13.1%
- cell viability [23]: 99.2%
- cell viability [24]: 110%
- cell viability [25]: 108%
- cell viability [26]: 111%
- cell viability [27]: 118%
- cell viability [28]: 118%
- cell viability [29]: 111%
- cell viability [30]: 108%
- cell viability [31]: 97.3%
- cell viability [32]: 73.6%
- cell viability [33]: 23.9%

SMILES: CN1CCN(CCCN2c3ccccc3Sc3ccc(C(F)(F)F)cc32)CC1
- cell viability [1]: 105%
- cell viability [2]: 106%
- cell viability [3]: 112%
- cell viability [4]: 117%
- cell viability [5]: 108%
- cell viability [6]: 115%
- cell viability [7]: 125%
- cell viability [8]: 95.4%
- cell viability [9]: 32.9%
- cell viability [10]: 20.6%
- cell viability [11]: 24.2%
- cell viability [12]: 100%
- cell viability [13]: 104%
- cell viability [14]: 108%
- cell viability [15]: 101%
- cell viability [16]: 96.2%
- cell viability [17]: 98.5%
- cell viability [18]: 106%
- cell viability [19]: 61.5%
- cell viability [20]: 18.7%
- cell viability [21]: 16.7%
- cell viability [22]: 11.3%
- cell viability [23]: 99.6%
- cell viability [24]: 107%
- cell viability [25]: 105%
- cell viability [26]: 108%
- cell viability [27]: 119%
- cell viability [28]: 113%
- cell viability [29]: 103%
- cell viability [30]: 104%
- cell viability [31]: 27.2%
- cell viability [32]: 25.6%
- cell viability [33]: 21%

SMILES: CC(C)(C)[C@H](NC(=O)c1ccc(N)c(Cl)c1)C(=O)N1CCC[C@H]1C(=O)N[C@H](C#N)CC(=O)O
- cell viability [12]: 113%
- cell viability [13]: 126%
- cell viability [14]: 112%
- cell viability [15]: 118%
- cell viability [16]: 120%
- cell viability [17]: 126%
- cell viability [18]: 116%
- cell viability [19]: 30%
- cell viability [20]: 23%
- cell viability [21]: 22.7%
- cell viability [22]: 20.6%

SMILES: CC(C)OC1=CC=C2C(=C1)O\C=C(/C2=O)C3=CC=CC=C3
- cell viability [1]: 116%
- cell viability [2]: 119%
- cell viability [3]: 130%
- cell viability [4]: 143%
- cell viability [5]: 151%
- cell viability [6]: 120%
- cell viability [7]: 122%
- cell viability [8]: 105%
- cell viability [9]: 108%
- cell viability [10]: 123%
- cell viability [11]: 120%

SMILES: N[S+](=O)([O-])OC[C@@H]1C[C@@H](n2ccc3c(N[C@H]4CCc5ccccc54)ncnc32)C[C@@H]1O
- cell viability [1]: 103%
- cell viability [2]: 118%
- cell viability [3]: 114%
- cell viability [4]: 111%
- cell viability [5]: 110%
- cell viability [6]: 107%
- cell viability [7]: 70.8%
- cell viability [8]: 26.6%
- cell viability [9]: 16.6%
- cell viability [10]: 14.3%
- cell viability [11]: 18.7%
- cell viability [12]: 96.2%
- cell viability [13]: 110%
- cell viability [14]: 92.4%
- cell viability [15]: 113%
- cell viability [16]: 118%
- cell viability [17]: 92.6%
- cell viability [18]: 57.7%
- cell viability [19]: 12.4%
- cell viability [20]: 10.8%
- cell viability [21]: 8.04%
- cell viability [22]: 8.01%
- cell viability [23]: 111%
- cell viability [24]: 97.4%
- cell viability [25]: 104%
- cell viability [26]: 104%
- cell viability [27]: 121%
- cell viability [28]: 103%
- cell viability [29]: 59.8%
- cell viability [30]: 26.7%
- cell viability [31]: 18.5%
- cell viability [32]: 13%
- cell viability [33]: 10.8%
